Assay results from patent US7365064B2, “Benzoxazine and benzothiazine derivatives and pharmaceutical compositions containing them” (Dr. Reddy's Laboratories Limited, priority 2001, dated 2008).
Where a name gives a salt, the structure may show the parent alone.

What was measured:
hPPARα = molecular target: T1, hPPARα (Homo sapiens, UniProt Q07869); assay: Determination of hPPARα activity (GAL4 fusion luciferase reporter in HEK-293 cells); assay type: cell-based; settings: compound concentration 50 μM
T1 construct: expressed in transfected cells; host or cells: HEK-293
T1 sequence (Q07869 239-466 limits assumed): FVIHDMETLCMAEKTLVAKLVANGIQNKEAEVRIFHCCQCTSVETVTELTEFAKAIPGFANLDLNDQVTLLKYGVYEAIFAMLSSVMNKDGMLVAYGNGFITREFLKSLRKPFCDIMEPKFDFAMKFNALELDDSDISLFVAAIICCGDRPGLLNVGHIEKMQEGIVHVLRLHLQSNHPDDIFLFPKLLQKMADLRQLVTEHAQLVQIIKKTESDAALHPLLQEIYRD
Experimental: a) Determination of hPPARα Activity
Ligand binding domain of hPPARα was fused to DNA binding domain of Yeast transcription factor Gal 4 in eucaryotic expression vector. Using superfect (Qiagen, Germany) as transfecting reagent HEK-293 cells are transfected with this plasmid and a reporter plasmid harboring the luciferace gene driven by a GAL4 specific promoter. Compound can be added at different concentrations after 42 hrs of transfection and incubated overnight. Luiciferase activity as a function of compound binding/activation capacity of PPARα will be measured using Packard Luclite kit (Packard, USA) in Top Count (Ivan Sadowsi, Brendan Bell, Peter Broag and Melvyn Hollis. Gene. 1992. 118: 137-141; Superfect Transfetion Reagent Handbook February 1997. Qiagen, Germany.

hPPARγ = molecular target: T2, hPPARγ (Homo sapiens, UniProt P37231); assay: Determination of hPPARγ activity (GAL4 fusion luciferase reporter in HEK-293 cells); assay type: cell-based; settings: compound concentration 1 μM
T2 construct: expressed in transfected cells; host or cells: HEK-293
T2 sequence (P37231 238-503 limits assumed): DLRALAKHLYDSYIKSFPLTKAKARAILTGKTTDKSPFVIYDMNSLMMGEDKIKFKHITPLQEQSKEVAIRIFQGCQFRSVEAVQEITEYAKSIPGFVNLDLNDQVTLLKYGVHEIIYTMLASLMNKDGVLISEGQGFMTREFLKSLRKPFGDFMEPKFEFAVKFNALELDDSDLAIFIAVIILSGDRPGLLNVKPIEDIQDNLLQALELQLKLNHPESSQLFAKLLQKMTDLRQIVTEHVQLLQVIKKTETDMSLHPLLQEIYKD
Experimental: b) Determination of hPPARγ Activity
Ligand binding domain of hPPARγ is fused to DNA binding domain of Yeast transcription factor GAL4 in eucaryotic expression vector. Using lipofectamine (Gibco BRL, USA) as transfecting reagent HEK-293 cells are transfected with this plasmid and a reporter plasmid harboring the luciferase gene driven by a GAL4 specific promoter. Compound can be added at 1 μM concentration after 48 hrs of transfection and incubated overnight Luciferase activity as a function of drug binding/activation capacity of PPARγ1 will be measured using Packard Luclite kit (Packard, USA) in Packard Top Cout (Ivan Sadowski, Brendan Bell, Peter Broag and Melvyn Hollis. Gene. 1992. 118: 137-141; Guide to Eukaryotic Transfections with Cationic Lipid Reagents. Life Technologies, GIBCO BRL, USA).

C57BL/KsJ-db/db mice = assay: Blood sugar and triglyceride lowering in db/db mice; assay type: in vivo; settings: 3 mg/kg oral gavage daily for 6 days
Excerpt: Mutation in colonies of laboratory animals and different sensitivities to dietary regimens have made the development of animal models with non-insulin dependent diabetes and hyperlipidemia associated with obesity and insulin resistance possible. Genetic models such as db/db and ob/ob (Diabetes, (1982) 31(1): 1-6) mice and zucker fa/fa rats have been developed by the various laboratories for understanding the pathophysiology of disease and testing the efficacy of new antidiabetic compounds (Diabetes, (1983) 32: 830-838; Annu. Rep. Sankyo Res. Lab. (1994). 46: 1-57). The homozygous animals, C57 BL/KsJ-db/db mice developed by Jackson Laboratory, US, are obese, hyperglycemic, hyperinsulinemic and insulin resistant (J. Clin. Invest., (1990) 85 : 962-967), whereas heterozygous are lean and normoglycemic. In db/db model, mouse progressively develops insulinopenia with age, a feature commonly observed in late stages of human type II diabetes when blood sugar levels are insufficiently controlled. The state of pancreas and its course vary according to the models. Since this model resembles that of type II diabetes mellitus, the compounds of the present invention will be tested for blood sugar and triglycerides lowering activities.
Male C57BL/KsJ-db/db mice of 8 to 14 weeks age, having body weight range of 35 to 60 grams, bred at Dr. Reddy's Research Foundation (DRF) animal house, were used in the experiment. The mice are provided with standard feed (National Institute of Nutrition (NIN), Hyderabad, India) and acidified water, ad libitum. The animals having more than 350 mg/dl blood sugar will be used for testing. The number of animals in each group was 4.
Test compounds are suspended on 0.25% carboxymethyl cellulose and administered to test group at a dose of 0.1 mg to 30 mg/kg through oral gavage daily for 6 days. The control group receives vehicle (dose 10 ml/kg). On 6th day the blood samples will be collected one hour after administration of test compounds/vehicle for assessing the biological activity.
The random blood sugar and triglyceride levels can be measured by collecting blood (100 μl) through orbital sinus, using heparinised capillary in tubes containing EDTA which was centrifuged to obtain plasma. The plasma glucose and triglyceride levels can be measured spectrometrically, by glucose oxidase and glycerol-3-PO4 oxidase/peroxidse enzyme (Dr. Reddy's Lab. Diagnostic Division Kits, Hyderabad, India) methods respectively.
The blood sugar and triglycerides lowering activities of the test compound are calculated according to the formula.
1. Percent reduction in Blood sugar/triglycerides/total cholesterol will be calculated according to the formula: […]

[1] = system: hypercholesterolemic Sprague Dawley rats; assay: Plasma triglyceride and cholesterol lowering activity in hypercholesterolemic rat models; assay type: in vivo; settings: 10 mg/kg orally for 3 days; for HDL (%) ↑: increase; for Total Cholesterol (%) ↓ / Triglyceride (%) ↓ / LDL (%) ↓ / VLDL (%) ↓: reduction; for LDL (%) ↓: LDL calculated from total cholesterol; for LDL (%) ↓ / VLDL (%) ↓: HDL and triglyceride; for VLDL (%) ↓: VLDL calculated from total cholesterol
Experimental: b) Plasma Triglyceride and Cholesterol Lowering Activity in Hypercholesterolemic Rat Models
Male Sprague Dawley rats (NIN stock) were bred in DRF animal house. Animals were maintained under 12 hour light and dark cycle at 25±1° C. Rats of 180-200 gram body weight range were used for the experiment. Animals are made hypercholesterolemic by feeding 2% cholesterol and 1% sodium cholate mixed with standard laboratory chow [National Institute of Nutrition (NIN), Hyderabad, India] […] for 6 days. Throughout the experimental period the animals were maintained on the same diet (Petit, D., Bonnefis, M. T., Rey, C and Infante, R. Effects of ciprofibrate on liver lipids and lipoprotein synthesis in normo- and hyperlipidemic rats. Atherosclerosis. 1988. 74 : 215-225).
The test compounds can be administered orally at a dose 0.1 to 30 mg/kg/day for 3 days. Control group was treated with vehicle alone (0.25% Carboxymethylcellulose; dose 10 ml/kg).
The blood samples were collected in fed state 1 hour after drug administration on 0 and 3 day of compound treatment. The blood was collected from the retro-orbital sinus through heparinsed capillary in EDTA containing tubes. After centrifugation, plasma sample was separated for total cholesterol, HDL and triglyceride estimations. Measurement of plasma, triglyceride, total cholesterol and HDL are were done using commercial kits (Dr. Reddy's Laboratory, Diagnostic Division, India). LDL and VLDL cholesterol were calculated from the data obtained for total cholesterol, HDL and triglyceride. The reduction of various parameters examined are calculated according to the formula.
(§1) 1. Percent reduction in Blood sugar/triglycerides/total cholesterol will be calculated according to the formula:
(§2) [formula] • OC=Zero day control group value • OT=Zero day treated group value • TC=Test day control group value • TT=Test day treated group value
2. LDL and VLDL cholesterol levels will be calculated according to the formula:
[formula] VLDL cholesterol in mg/dl=[Total cholesterol−HDL cholesterol−LDL cholesterol]mg/dl.

Swiss albino mice = assay: Plasma triglyceride and total cholesterol lowering activity in Swiss albino mice and guinea pigs; assay type: in vivo; settings: 10 mg/kg orally for 6 days; species not named
Experimental: c) Plasma Triglyceride and Total Cholesterol Lowering Activity in Swiss Albino Mice and Gunie Pigs
Male Swiss albino mice (SAM) and male Guinea pigs were obtained from NIN and housed in DRF animal house. All these animals are maintained under 12 hour light and dark cycle at 25±1° C. Animals were given standard laboratory chow (NIN, Hyderabad, India) and water, ad libitum. SAM of 20-25 g body weight range and Guinea pigs of 500-760 g body weight range are used (Oliver, P., Plancke, M. O., Marzin, D., Clavey, V., Sauzieres, J and Fruchatt, J. C. Effects of fenofibrate, gemfibrozil and nicotinic acid on plasma lipoprotein levels in normal and hyperlipidemic mice. Atherosclerosis. 1988. 70 : 107-114).
The test compounds were administered orally to Swiss albino mice at 0.3 to 30 mg/kg/day dose for 6 days. Control mice are treated with vehicle (0.25% Carboxymethylcellulose; dose 10 ml/kg). The test compounds are administered orally to Guinea pigs at 0.3 to 30 mg/kg/day dose for 6 days. Control animals are treated with vehicle (0.25% Carboxymethylcellulose; dose 5 ml/kg).
The blood samples were collected in fed state 1 hour after drug administration on 0 and 6 day of treatment The blood was collected from the retro-orbital sinus through heparinised capillary in EDTA containing tubes. After centrifugation, plasma sample was separated for triglyceride and total cholesterol (Wieland, O. Methods of Enzymatic analysis. Bergermeyer, H. O., Ed., 1963. 211-214; Trinder, P. Ann. Clin. Biochem. 1969. 6: 24-27). Measurement of plasma triglyceride were done using commercial kits (Dr. Reddy's Diagnostic Division, Hyderabad, India).
as §1, §2

Row | Compound | PPARα (hPPARα) | PPARγ (hPPARγ) | Reduction in Blood Glucose Level (%) (C57BL/KsJ-db/db mice) | Triglyceride Lowering (%) (C57BL/KsJ-db/db mice) | HDL (%) ↑ [1] | Total Cholesterol (%) ↓ [1] | Triglyceride (%) ↓ [1] | LDL (%) ↓ [1] | VLDL (%) ↓ [1] | Triglyceride Lowering (%) (Swiss albino mice)
1 | CCOC(Cc1ccc(NCCCN2CCOc3ccccc32)cc1)C(=O)O (stereo not shown) [Example 3, 3-[4-{3-(3,4-Dihydro-2H-benzo[b][1,4]oxazin-4-yl)propylamino}phenyl]-2-ethoxypropanoic acid arginine salt] | 4.7 | 3.0 | 33% | 29% | 254% | 69% | 77% | 80% | 77% | 70%
2 | CCCCCCCN(CCN1C(=O)COc2ccccc21)c1ccc(CC(OCC)C(=O)O)cc1 (stereo not shown) [Example 6, 3-[4-N-Heptyl-N-{2-(3-oxo-3,4-dihydro-2H-benzo[b][1,4]oxazin-4-yl)ethylamino}phenyl]-2-ethoxypropanoic acid arginine salt] | – | – | – | – | – | – | – | – | – | 27%
3 | CCCCCCCN(CC(=O)N1CCOc2ccccc21)Cc1ccc(CC(OCC)C(=O)O)cc1 (stereo not shown) [Example 9, 2-Ethoxy-3-[4-{N-heptyl-N-(2-(3,4-dihydro-2H-benzo[b]oxazin-4-yl)-2-oxoethyl)aminomethyl}phenyl]propanoic acid arginine salt] | 4.6 | 6.2 | – | – | – | – | – | – | – | –
4 | CCOC(Cc1cccc(NCCCN2CCOc3ccccc32)c1)C(=O)O (stereo not shown) [Example 15, 3-[3-{3-(3,4-Dihydro-2H-benzo[b][1,4]oxazin-4-yl)propylamino}phenyl]-2-ethoxypropanoic acid arginine salt] | – | – | – | – | – | – | – | – | – | 43%
5 | CCOC(Cc1ccc(NCCCN2CCOc3cc(F)ccc32)cc1)C(=O)O (stereo not shown) [Example 18, 3-[4-{3-(7-Fluoro-3,4-dihydro-2H-benzo[b][1,4]oxazin-4-yl)propylamino}phenyl]-2-ethoxypropanoic acid arginine salt] | 4.4 | 1.2 | 16% | 35% | 260% | 64% | 77% | 74% | 77% | 61%
6 | CCOC(Cc1ccc(NCc2ccc(OCCCN3CCOc4ccccc43)cc2)cc1)C(=O)O (stereo not shown) [Example 23, 2-Ethoxy-3-[4-{4-(3-(3,4-dihydro-2H-benzo[b][1,4]oxazin-4-yl)propyloxy)benzyl}aminophehyl]propanoic acid arginine salt] | 4.2 | 4.4 | – | – | – | – | – | – | – | –
7 | CCOC(Cc1ccc(NCCCN2CCSc3ccccc32)cc1)C(=O)O (stereo not shown) [Example 27, 2-Ethoxy-3-[4-{3-3,4-dihydro-2H-benzo[b][1,4]thiazin-4-yl)propylamino}phenyl]propanoic acid arginine salt] | 4.3 | 3.5 | – | – | – | – | – | – | – | –
